The values below come from patent EP4559923A1, “ANTIHISTAMINE COMPOUND, AND PREPARATION METHOD THEREFOR AND USE THEREOF” (HC Synthetic Pharmaceutical Co., Ltd., priority 2022, dated 2024).

The test system of data set [1] is isolated ileal smooth muscle. The data set is described as follows: Muscle tone of isolated ileal smooth muscle of guinea pigs, compound alone. Particulars: Table 3, no histamine, X±s, n = 8; for Smooth muscle tone (g) After administration: 5 minutes after adding the drug; for Antispasmodic percentage (%): relative to tone before adding compound, 5 min.
Data set [2] can be described thus: Accelerated stability test. It is filed as physicochemical. Particulars: 40°C ± 2°C, relative humidity 75% ± 5%.
Another data set relates to histamine. The data set is described as follows: Muscle tone of isolated ileal smooth muscle of guinea pigs contracted with histamine. Conditions: Table 4; relative to tone after adding histamine; x±s, n = 8; 3 min.
Experiment in data set [3]: as above
Particulars: Table 4; 3 minutes after adding 0.05 mL compound at maximum histamine contraction; x±s, n = 8.

The test system of a further data set is histamine-induced asthma. The data set is described as follows: Antiasthmatic effect on histamine-induced asthma in guinea pigs (latency period). It is filed as in vivo. Particulars: 1 mg/kg oral gavage, sixty minutes after administration; histamine hydrochloride spray; no asthma within 8 minutes counted as 8 minutes; X±s, n = 5.
Data set [4] can be described thus: Solubility in water, methanol and isopropanol.
Experimental: The solubility in water, methanol, and isopropanol of the compounds of the present disclosure and the comparative compounds were measured separately.

Structures are written as SMILES. ≈ marks a conversion by molar mass, not a printed value.

Turning to `O=P(O)(O)OCCCCN1CCC(=C2c3ccc(Cl)cc3CCc3cccnc32)CC1` [Compound IV-5], the “Smooth muscle tone (g) After administration” value is 1.19 ± 0.27 g in data set [1] and 1.19 ± 0.23 g in data set [3]. The “Antispasmodic percentage (%)” value in data set [1] is recorded as 31.60±20.10%; with histamine, 65.70±20.11%. Also, the Content in data set [2] (Month 0) is recorded as 99.5%; in data set [2] (Month 1, 43800 min), 99.5%; in data set [2] (Month 2, 87600 min), 99.4%; in data set [2] (Month 3, 131400 min), 99.4%; in data set [2] (Month 6, 262800 min), 99.2%. Further, the Description result in data set [2] (Month 0), in data set [2] (Month 1), in data set [2] (Month 2), in data set [2] (Month 3) and in data set [2] (Month 6) was “White powder” each time. Moreover, the Related substances in data set [2] (Month 0) is listed as 0.03%; in data set [2] (Month 1), 0.06%; in data set [2] (Month 2), 0.10%; in data set [2] (Month 3), 0.13%; in data set [2] (Month 6), 0.28%. The “Post-administration latency period” value in the data set on histamine-induced asthma amounted to 362.49 ± 50.00 s. In data set [4] (in isopropanol), the “solubility Isopropanol” value came to 1 mg/mL (≈ 2.16 mM). In data set [4] (in methanol), the “solubility Methanol” value turned out to be 22 mg/mL (≈ 47.5 mM). Besides, the “solubility Water” value in data set [4] (in water) turned out to be 386 mg/mL (≈ 834 mM).

For the compound `O=P(O)(O)OCCCCN1CCC(=C2c3ccc(Cl)cc3CCc3cccnc32)CC1` [Compound IV-4], the “Smooth muscle tone (g) After administration” value in data set [1] was 1.14 ± 0.21 g; in data set [3], 1.16 ± 0.22 g. The “Antispasmodic percentage (%)” value was found to be 33.33±20.91% in data set [1] and 66.76±19.71% with histamine. The compound further registered a Content in data set [2] (Month 0) of 99.6%. Moreover, the Description result in data set [2] (Month 0), in data set [2] (Month 1), in data set [2] (Month 2), in data set [2] (Month 3) and in data set [2] (Month 6) was “White powder” each time. Besides, the Related substances in data set [2] (Month 0) was 0.03%; in data set [2] (Month 1), 0.04%; in data set [2] (Month 2), 0.05%; in data set [2] (Month 3) it was 0.06%; in data set [2] (Month 6), 0.10%. Further, in data set [2] (storage 75% relative humidity, Month 1, read-out: Content), the remaining at 730 h was 99.6%. In data set [2] (storage 75% relative humidity, Month 2, read-out: Content), the remaining at 1460 h was 99.6%. The remaining at 2190 h in data set [2] (storage 75% relative humidity, Month 3, read-out: Content) was 99.6%. The remaining at 4380 h in data set [2] (storage 75% relative humidity, Month 6, read-out: Content) worked out at 99.5%. In addition, the “Post-administration latency period” value in the data set with histamine-induced asthma stood at 380.22 ± 51.19 s. In addition, the solubility in data set [4] (water) was 402 mg/mL (≈ 868 mM).

In general, solubility refers to the dissolved amount per volume that the medium holds. A high value points to a readily soluble substance.
